# Assay results as given in patent US20250129018A1, “PLEUROMUTILIN DERIVATIVES CONTAINING CYCLOALKYL GROUP AND PREPARATION METHODS AND APPLICATIONS THEREOF” (priority 2023, published 2025).
# Like-named read-outs stand apart in the source and are kept apart here.
# How the values were obtained:
# [1] = system: MRSA-337371; test: MIC, two-fold serial dilution method; type: cell-based, Methicillin-resistant Staphylococcus aureus; conditions: Staphylococcus aureus, read-out: minimum inhibitory concentration
# Protocol: (§1) The pleuromutilin derivatives 1-4 prepared from Example 9 of the present disclosure were determined for their effect on Methicillin-resistant Staphylococcus aureus, Methicillin-resistant Staphylococcus epidermidis, standard strains of Staphylococcus aureus (S. aureus-29213 and S. aureus-25923), clinical strains 1-48 of S. aureus, Escherichia coli, S. agalactiae and S. dysgalactiae equisimilis (S. dysgalactiae-1, S. dysgalactiae-2, S. dysgalactiae-3) and minimum inhibitory concentration (MIC) using a two-fold serial dilution method, and the results were shown in Table 1, Table 2 and Table 3. The standard strains are commercially available from ATCC, and the clinical strains are preserved by Lanzhou Institute of Husbandry and Pharmaceutical Science of Chinese Academy of Agricultural Sciences (Lanzhou, Gansu, China).
# [2] = system: S. aureus-41; test: MIC, clinical strain; type: cell-based, Staphylococcus aureus
# Protocol: as §1
# [3] = system: S. aureus-33; test: MIC, clinical strain; type: cell-based, Staphylococcus aureus
# Protocol: as §1
# [4] = system: S. aureus-46; test: MIC, clinical strain; type: cell-based, Staphylococcus aureus
# Protocol: as §1
# [5] = system: S. aureus-34; test: MIC, clinical strain; type: cell-based, Staphylococcus aureus
# Protocol: as §1
# [6] = system: S. aureus-42; test: MIC, clinical strain; type: cell-based, Staphylococcus aureus
# Protocol: as §1
# [7] = system: S. aureus-21; test: MIC, clinical strain; type: cell-based, Staphylococcus aureus
# Protocol: as §1
# [8] = system: S. aureus-27; test: MIC, clinical strain; type: cell-based, Staphylococcus aureus
# Protocol: as §1
# [9] = system: S. aureus-31; test: MIC, clinical strain; type: cell-based, Staphylococcus aureus
# Protocol: as §1
# [10] = system: S. aureus-2; test: MIC, clinical strain; type: cell-based, Staphylococcus aureus
# Protocol: as §1
# [11] = system: S. aureus-29; test: MIC, clinical strain; type: cell-based, Staphylococcus aureus
# Protocol: as §1
# [12] = system: S. aureus-9; test: MIC, clinical strain; type: cell-based, Staphylococcus aureus
# Protocol: as §1
# [13] = system: S. aureus-11; test: MIC, clinical strain; type: cell-based, Staphylococcus aureus
# Protocol: as §1
# [14] = system: S. aureus-6; test: MIC, clinical strain; type: cell-based, Staphylococcus aureus
# Protocol: as §1
# [15] = system: S. aureus-3; test: MIC, clinical strain; type: cell-based, Staphylococcus aureus
# Protocol: as §1
# [16] = system: S. aureus-5; test: MIC, clinical strain; type: cell-based, Staphylococcus aureus
# Protocol: as §1
# [17] = system: S. aureus-25; test: MIC, clinical strain; type: cell-based, Staphylococcus aureus
# Protocol: as §1
# [18] = system: S. aureus-32; test: MIC, clinical strain; type: cell-based, Staphylococcus aureus
# Protocol: as §1
# [19] = system: S. aureus-14; test: MIC, clinical strain; type: cell-based, Staphylococcus aureus
# Protocol: as §1
# [20] = system: S. aureus-19; test: MIC, clinical strain; type: cell-based, Staphylococcus aureus
# Protocol: as §1
# [21] = system: S. aureus-4; test: MIC, clinical strain; type: cell-based, Staphylococcus aureus
# Protocol: as §1
# [22] = system: S. aureus-30; test: MIC, clinical strain; type: cell-based, Staphylococcus aureus
# Protocol: as §1
# [23] = system: S. aureus-40; test: MIC, clinical strain; type: cell-based, Staphylococcus aureus
# Protocol: as §1
# [24] = system: S. aureus-8; test: MIC, clinical strain; type: cell-based, Staphylococcus aureus
# Protocol: as §1
# [25] = system: S. aureus-13; test: MIC, clinical strain; type: cell-based, Staphylococcus aureus
# Protocol: as §1
# [26] = system: S. aureus-26; test: MIC, clinical strain; type: cell-based, Staphylococcus aureus
# Protocol: as §1
# [27] = system: S. aureus-23; test: MIC, clinical strain; type: cell-based, Staphylococcus aureus
# Protocol: as §1
# [28] = system: S. aureus-17; test: MIC, clinical strain; type: cell-based, Staphylococcus aureus
# Protocol: as §1
# [29] = system: S. aureus-15; test: MIC, clinical strain; type: cell-based, Staphylococcus aureus
# Protocol: as §1
# [30] = system: S. aureus-48; test: MIC, clinical strain; type: cell-based, Staphylococcus aureus
# Protocol: as §1
# [31] = system: S. aureus-18; test: MIC, clinical strain; type: cell-based, Staphylococcus aureus
# Protocol: as §1
# [32] = system: S. aureus-7; test: MIC, clinical strain; type: cell-based, Staphylococcus aureus
# Protocol: as §1
# [33] = system: S. aureus-1; test: MIC, clinical strain; type: cell-based, Staphylococcus aureus
# Protocol: as §1
# [34] = system: S. aureus-35; test: MIC, clinical strain; type: cell-based, Staphylococcus aureus
# Protocol: as §1
# [35] = system: S. aureus-10; test: MIC, clinical strain; type: cell-based, Staphylococcus aureus
# Protocol: as §1
# [36] = system: S. aureus-22; test: MIC, clinical strain; type: cell-based, Staphylococcus aureus
# Protocol: as §1
# [37] = system: S. aureus-25923; test: MIC, two-fold serial dilution method; type: cell-based, Staphylococcus aureus; conditions: Staphylococcus aureus, read-out: minimum inhibitory concentration
# Protocol: as §1
# [38] = system: S. aureus-29213; test: MIC, two-fold serial dilution method; type: cell-based, Staphylococcus aureus; conditions: Staphylococcus aureus, read-out: minimum inhibitory concentration
# Protocol: as §1
# [39] = system: S. agalactiae-1; test: MIC, two-fold serial dilution method; type: cell-based; conditions: Streptococcus agalactiae, read-out: minimum inhibitory concentration
# Protocol: as §1
# [40] = system: E. coli-25922; test: MIC, two-fold serial dilution method; type: cell-based, Escherichia coli; conditions: Escherichia coli, read-out: minimum inhibitory concentration
# Protocol: as §1
# [41] = system: MRSE; test: MIC, two-fold serial dilution method; type: cell-based, Methicillin-resistant Staphylococcus epidermidis; conditions: Staphylococcus epidermidis, read-out: minimum inhibitory concentration
# Protocol: as §1
smiles,measurement,setting,value
C=C[C@]1(C)C[C@@H](OC(=O)CSCCN(CC)CC)[C@]2(C)[C@H](C)CC[C@]3(CCC(=O)[C@H]32)[C@@H](C)[C@@H]1O [Tiamulin],MIC,[1]; MRSA-337371,0.25 µg/mL
same,in vitro minimum inhibitory concentration,[2],0.5
same,in vitro minimum inhibitory concentration,[3],1
same,in vitro minimum inhibitory concentration,[4],1
same,in vitro minimum inhibitory concentration,[5],0.5
same,in vitro minimum inhibitory concentration,[6],0.5
same,in vitro minimum inhibitory concentration,[7],0.5 µg/mL
same,in vitro minimum inhibitory concentration,[8],0.5
same,in vitro minimum inhibitory concentration,[9],0.5
same,in vitro minimum inhibitory concentration,[10],0.5
same,in vitro minimum inhibitory concentration,[11],1
same,in vitro minimum inhibitory concentration,[12],0.5
same,in vitro minimum inhibitory concentration,[13],0.5
same,in vitro minimum inhibitory concentration,[14],0.25
same,in vitro minimum inhibitory concentration,[15],0.5
same,in vitro minimum inhibitory concentration,[16],0.5
same,in vitro minimum inhibitory concentration,[17],0.5
same,in vitro minimum inhibitory concentration,[18],1
same,in vitro minimum inhibitory concentration,[19],0.5
same,in vitro minimum inhibitory concentration,[20],0.5
same,in vitro minimum inhibitory concentration,[21],0.5
same,in vitro minimum inhibitory concentration,[22],0.5
same,in vitro minimum inhibitory concentration,[23],1
same,in vitro minimum inhibitory concentration,[24],0.5
same,in vitro minimum inhibitory concentration,[25],0.25 µg/mL
same,in vitro minimum inhibitory concentration,[26],0.5
same,in vitro minimum inhibitory concentration,[27],0.5
same,in vitro minimum inhibitory concentration,[28],0.5
same,in vitro minimum inhibitory concentration,[29],0.5 µg/mL
same,in vitro minimum inhibitory concentration,[30],0.5
same,in vitro minimum inhibitory concentration,[31],0.125
same,in vitro minimum inhibitory concentration,[32],1
same,in vitro minimum inhibitory concentration,[33],0.5 µg/mL
same,in vitro minimum inhibitory concentration,[34],0.5
same,in vitro minimum inhibitory concentration,[35],0.5
same,in vitro minimum inhibitory concentration,[36],0.5 µg/mL
same,MIC,[37]; S. aureus-25923,0.25 µg/mL
same,MIC,[38]; S. aureus-29213,0.5 µg/mL
same,MIC,[39]; S. agalactiae-1,0.25 µg/mL
same,MIC,[40]; E. coli-25922,> 16 µg/mL
same,MIC,[41],0.5 µg/mL
C=C[C@]1(C)C[C@@H](OC(=O)CSC(C)(C)CNC(=O)[C@H](N)C(C)C)[C@]2(C)[C@H](C)CC[C@]3(CCC(=O)[C@H]32)[C@@H](C)[C@@H]1O [Valnemulin],MIC,[1]; MRSA,0.031 µg/mL
same,in vitro minimum inhibitory concentration,[2],0.063
same,in vitro minimum inhibitory concentration,[3],0.063
same,in vitro minimum inhibitory concentration,[4],0.063
same,in vitro minimum inhibitory concentration,[5],0.063
same,in vitro minimum inhibitory concentration,[6],0.063
same,in vitro minimum inhibitory concentration,[7]; in µg/mL,0.125
same,in vitro minimum inhibitory concentration,[8],0.063
same,in vitro minimum inhibitory concentration,[9],0.063
same,in vitro minimum inhibitory concentration,[10],0.25
same,in vitro minimum inhibitory concentration,[11],0.063
same,in vitro minimum inhibitory concentration,[12],0.063
same,in vitro minimum inhibitory concentration,[13],0.063
same,in vitro minimum inhibitory concentration,[14],0.063
same,in vitro minimum inhibitory concentration,[15],0.063
same,in vitro minimum inhibitory concentration,[16],0.063
same,in vitro minimum inhibitory concentration,[17],0.063
same,in vitro minimum inhibitory concentration,[18],0.063
same,in vitro minimum inhibitory concentration,[19],0.125
same,in vitro minimum inhibitory concentration,[20],0.063
same,in vitro minimum inhibitory concentration,[21],0.125
same,in vitro minimum inhibitory concentration,[22],0.063
same,in vitro minimum inhibitory concentration,[23],0.063
same,in vitro minimum inhibitory concentration,[24],0.063
same,in vitro minimum inhibitory concentration,[25]; in µg/mL,0.063
same,in vitro minimum inhibitory concentration,[26],0.063
same,in vitro minimum inhibitory concentration,[27],0.063
same,in vitro minimum inhibitory concentration,[28],0.063
same,in vitro minimum inhibitory concentration,[29]; in µg/mL,0.063
same,in vitro minimum inhibitory concentration,[30],0.125
same,in vitro minimum inhibitory concentration,[31],0.063
same,in vitro minimum inhibitory concentration,[32],0.063
same,in vitro minimum inhibitory concentration,[33],0.25 µg/mL
same,in vitro minimum inhibitory concentration,[34],0.063
same,in vitro minimum inhibitory concentration,[35],0.063
same,in vitro minimum inhibitory concentration,[36],0.25 µg/mL
same,MIC,[37],0.031 µg/mL
same,MIC,[38],0.063 µg/mL
same,MIC,[39],0.031 µg/mL
same,MIC,[40],16 µg/mL
same,MIC,[41],0.031 µg/mL
